Laboratory results as given in article PMC4434603 (Journal of biomolecular screening, 2011).

T1: His-RORα-LBD (Homo sapiens, UniProt P35398)
T1 sequence (P35398 with tags, fused parts or gaps): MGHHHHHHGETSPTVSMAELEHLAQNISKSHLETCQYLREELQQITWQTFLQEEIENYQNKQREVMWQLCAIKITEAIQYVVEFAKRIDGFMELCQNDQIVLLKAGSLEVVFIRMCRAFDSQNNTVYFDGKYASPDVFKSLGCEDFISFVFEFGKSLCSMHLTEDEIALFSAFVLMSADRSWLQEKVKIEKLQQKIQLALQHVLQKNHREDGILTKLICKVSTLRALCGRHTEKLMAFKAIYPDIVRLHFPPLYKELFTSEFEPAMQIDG

T2: Biotin-PGC-1α NR1 peptide (biotin on the N-terminus)
T2 peptide: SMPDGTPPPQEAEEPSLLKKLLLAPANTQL


Legend:
[1] = target: T1, His-RORα-LBD; assay: HTS LOPAC AlphaScreen screen and compound response curves; type: biochemical; conditions: CRC; for EC50: read-out: Final EC50, 50 µM top, 3-fold dilutions, 10 points, triplicate
[2] = target: T2, Biotin-PGC-1α NR1 peptide; assay: AlphaScreen or HTRF

Row | Molecule | Hill Slope [1] | EC50 [1] | EC50 [2]
1 | CCCCCCC(C)(C)c1ccc([C@@H]2C[C@H](O)CC[C@H]2CCCO)c(O)c1 [C 1112] | 1.73 | 224 nM | 
2 | CC(=O)[C@H]1CC[C@H]2[C@@H]3CCC4=CC(=O)CC[C@]4(C)[C@H]3CC[C@]12C [P 0130] | 1.07 | 833 nM | 
3 | CC(=O)[C@H]1CCC2C3CC[C@H]4C[C@H](O)CC[C@]4(C)C3CC[C@@]21C (stereo partly drawn) [P 8887] | 0.28 | 331 nM | 
4 | C[C@]12C=CC(=O)C=C1CC[C@@H]1C2=CC[C@]2(C)[C@@H](C(=O)CN3CCN(c4cc(N5CCCC5)nc(N5CCCC5)n4)CC3)CC[C@@H]12.O=C(O)/C=C\C(=O)O [U 5882] | 1.79 | 393 nM | 
5 | His-RORα-LBD (262–523) (domain or fragment) GETSPTVSMAELEHLAQNISKSHLETCQYLREELQQITWQTFLQEEIENYQNKQREVMWQLCAIKITEAIQYVVEFAKRIDGFMELCQNDQIVLLKAGSLEVVFIRMCRAFDSQNNTVYFDGKYASPDVFKSLGCEDFISFVFEFGKSLCSMHLTEDEIALFSAFVLMSADRSWLQEKVKIEKLQQKIQLALQHVLQKNHREDGILTKLICKVSTLRALCGRHTEKLMAFKAIYPDIVRLHFPPLYKELFTSEFEPAMQIDG |  |  | 36 nM
